Measurements reported in US8835425B2, “Use of selective GABA A α5 negative allosteric modulators for the treatment of central nervous system conditions” (Hoffmann-La Roche Inc., priority 2010, dated 2014).
Like-named read-outs stand apart in the source and are kept apart here.

Experiments:
Ts65Dn and control mice [1] = assay: Spatial learning: Morris water maze; type: in vivo; conditions: 20 mg/kg p.o. chronic; for Ts65Dn mice performance in MWM acquisition sessions / control mice performance in MWM acquisition sessions: vs vehicle; for latency to reach the platform during cued sessions: in Ts65Dn but not in control mice
Protocol: (§1) For mice studies, active pharmaceutical compounds of present invention were formulated in chocolate-milk (Puleva, Barcelona, Spain). Active pharmaceutical compounds of present invention or vehicle were administered p.o. at a dose of 20 mg/kg for six weeks. Their administration was prolonged during the 30 days of the behavioral assessment.
To evaluate spatial learning the Morris Water Maze was used. The apparatus was a circular tank of 110 cm in diameter, full of water (22-24° C.) made opaque by the addition of powdered milk. Inside the tank, a platform was hidden 1 cm below the water level. Animals were tested at the end of the treatment period in 12 consecutive daily sessions: 8 acquisition sessions (platform submerged), followed by 4 cued sessions (platform visible). All trials were videotaped with a camera located 2 m above the water level. A SMART computerized tracking system (Panlab S. A., Barcelona, Spain) was used to analyze the mouse trajectories, measure escape latency, distance traveled, and swimming speed for each animal in each trial.
In the acquisition sessions (S1-S8), the platform was hidden 1 cm below the water level. From one daily session to the next, the platform was placed in a different location (E, SW, center, and NW); each position was used once every four consecutive daily sessions. Each of the 8 acquisition and 4 cued sessions (one session per day) consisted of four pairs of trials, 30-45 min apart. For each trial pair, the mice were randomly started from one of four positions (N, S, E, W), which was held constant for both trials. The first trial of a pair was terminated when the mouse located the platform or when 60 s had elapsed; the second trial commenced following a period of 20 s, during which the animal was allowed to stay on the platform. Several fixed cues outside of the maze were constantly visible from the pool.
During the cued sessions the platform was visible: the water level was 1 cm below the platform, and its position was indicated with a flag. Eight trials were performed during each session, following the same experimental procedure as in the acquisition sessions.

Ts65Dn and control mice [2] = assay: Spontaneous activity: actimetry; type: in vivo; conditions: 20 mg/kg p.o. chronic, vs vehicle
Protocol: as §1
In this test the circadian variation of the animals' spontaneous locomotor activity during a complete light-dark cycle of 24 hours was evaluated. The apparatus is a device (Acti-system II, Panlab, Barcelona) that detects the changes produced in a magnetic field by the movement of the mice. It registers the movements of animals during a continuous 24 hour cycle (12 hours of light and 12 hours of darkness).

human GABA A α3β3γ2 = human GABA A α3β3γ2 (Homo sapiens, UniProt P18507+P34903); assay: [3H]flumazenil competition binding, HEK293 cells expressing human α3β3γ2; design: expressed in transfected cells; host or cells: HEK293; conditions: for hKi α3/hKi α5: binding selectivity ratio
human GABA A α5β3γ2 = human GABA A α5β3γ2 (Homo sapiens, UniProt P18507+P31644); assay: [3H]flumazenil competition binding, HEK293 cells expressing human α5β3γ2; design: expressed in transfected cells; host or cells: HEK293
[3] = test system: hippocampal slices of Ts65Dn mice; assay: Long term potentiation in hippocampal slices after chronic treatment; type: in vivo; conditions: 20 mg/kg p.o. for six weeks, vs control mice
Protocol: The effect of chronic administration of 8581 and R1 on LTP was evaluated in the Ts65Dn mouse model of Down syndrome. 8581, R1 (20 mg/kg p.o.) or vehicle was administered for six weeks. Mice were decapitated 1 hour after the last administration and the brains were rapidly removed. The hippocampi were dissected and 400-μm slices were cut with a tissue chopper. […] Field excitatory postsynaptic potentials (fEPSPs) were recorded from the CA1 stratum radiatum with a glass micropipette (1-4 MΩ) containing 2 M NaCl and evoked by stimulation of the Schaffer collaterals with insulated bipolar platin/iridium electrodes >500 μm away from the recording electrode. The stimulus strength was adjusted to evoke fEPSPs equal to 50% of the relative maximum amplitude without superimposed population spike. After stable baseline recordings (100 μs pulse-duration, 0.033 Hz), long term potentiation (LTP) was induced by TBS (10 trains of 5 pulses at 100 Hz and intervals of 200 ms). The duration of the stimulation pulses was doubled during the tetanus. After 20 min of baseline recording, LTP was induced and recorded for 80 min in each individual hippocampal slice. […] For the analysis, fEPSP slopes were expressed as a percentage of the baseline values recorded. Results from several slices were expressed as mean±SEM. […]

human GABA A α2β3γ2 = human GABA A α2β3γ2 (Homo sapiens, UniProt P18507+P47869); assay: Two-microelectrode voltage clamp, modulation of GABA EC10 response in Xenopus oocytes, α2β3γ2; type: cell-based; design: expressed in transfected cells; host or cells: Xenopus laevis oocytes; conditions: % change of EC10 GABA response at 3 μM or at 30×Ki if Ki below 0.1 μM
Protocol: Table 2b. […] Effect at human GABA A α5 receptors: % change of a submaximal (EC10) response to GABA determined at 30×Ki value from the flumazenil binding assay.
Subtype-selective effects were determined on cloned receptors expressed in Xenopus oocytes. Human recombinant GABA A receptors were expressed in Xenopus laevis oocytes. Current responses were evoked in two-microelectrode voltage-clamp condition by applying an EC10 of GABA before and during the co-application of the test compound. Response amplitudes in the presence of the test compound are expressed as percentage of the amplitudes before drug addition.

human GABA A α1β2/3γ2 = human GABA A α1β2/3γ2 (Homo sapiens, UniProt P14867+P18507); assay: Two-microelectrode voltage clamp, modulation of GABA EC10 response in Xenopus oocytes, α1β2/3γ2; type: cell-based; design: expressed in transfected cells; host or cells: Xenopus laevis oocytes; conditions: % change of EC10 GABA response at 3 μM or at 30×Ki if Ki below 0.1 μM

Row | Compound | difference between Ts65Dn and control learning curves in MWM (Ts65Dn and control mice [1]) | Ts65Dn mice performance in MWM acquisition sessions (Ts65Dn and control mice [1]) | control mice performance in MWM acquisition sessions (Ts65Dn and control mice [1]) | latency to reach the platform during cued sessions (Ts65Dn and control mice [1]) | spontaneous activity in home cage, dark or light phase (Ts65Dn and control mice [2]) | Ki (human GABA A α3β3γ2) [nM] | hKi α3/hKi α5 (human GABA A α3β3γ2) | Ki (human GABA A α5β3γ2) [nM] | LTP induced in hippocampal slices of treated Ts65Dn animals [3] | Efficacy GABA A α2β3γ2 (human GABA A α2β3γ2) [%] | Efficacy GABA A α1β2/3γ2 (human GABA A α1β2/3γ2) [%] | Ki (human GABA A α5β3γ2; [3H]flumazenil competition, human α5β3γ2, read-out: hKi α5) [nM]
1 | FC(F)c1ncn2c1Cn1ncnc1-c1cc(Br)ccc1-2 [Compound 8581, 3-Bromo-10-difluoromethyl-9H-imidazo[1,5-a][1,2,4]triazolo[1,5-d][1,4]benzodiazepine] | reduced | significantly improved Ts65Dn mice performance | did not significantly affect control mice performance | reduced the latency to reach the platform | did not differ in the amount of spontaneous activity | 79.6 | 17 | 4.6 | not different from that induced in hippocampal slices of control mice | −11 | −1 | –
2 | Cc1onc(-c2ccc(F)cc2)c1COc1ccc(C(=O)N2CCS(=O)(=O)CC2)cn1 [Compound R1, (1,1-Dioxo-1,6-thiomorpholin-4-yl)-{6-[3-(4-fluoro-phenyl)-5-methyl-isoxazol-4-ylmethoxy]-pyridin-3-yl}-methanone] | reduced | improved Ts65Dn mice cognition | did not significantly affect control mice performance | reduced the latency to reach the platform | did not differ in the amount of spontaneous activity | 489 | 104 | – | not different from that induced in hippocampal slices of control mice | −6 | −4 | 4.7
